# Values joined by “and” are separate entries in the source; they are usually repeats but may differ in a detail not shown here. Equal values may be shown once. Read-outs that look alike come from different tables or passages of the source.
# Key:
# Format in all cases: cell-based, Plasmodium falciparum
# [1] = test system: isolated Dd2-Polδ-PfATP4^G358S P. falciparum trophozoites; assay: [Na+]cyt measurement (SBFI), Na+ dysregulation; design: Final [Na+]cyt reached: unit not given here; conditions: Plasmodium falciparum, DD2, Dd2-Polδ-PfATP4G358S, source data of Table 1 (nM there)
# Protocol: (§1) The ratio of the fluorescence intensity recorded at 340 nm and 380 nm (with an emission wavelength of 515 nm) was converted to [Na^+]cyt using a calibration procedure that entailed suspending parasites in solutions of varying [Na^+] containing ionophores. Fluorescence measurements and calibrations were performed at 37 °C, either with individual 1 mL suspensions using a PerkinElmer LS 50B fluorescence spectrometer (for resting [Na^+]cyt measurements for which the data are shown in Supplementary Fig. 7) or in 96-well plates using a Tecan Infinite M1000 PRO plate reader with i-control (version 1.12) software (all other [Na^+]cyt measurements).
# [2] = test system: isolated Dd2-Polδ P. falciparum trophozoites; assay: [Na+]cyt measurement (SBFI), Na+ dysregulation; design: Final [Na+]cyt reached: unit not given here; conditions: for Final [Na+]cyt reached: Dd2-Polδ; for IC50: Plasmodium falciparum
# Protocol: as §1
# [3] = test system: Dd2-Polδ-PfATP4^G358S parasites; assay: P. falciparum proliferation assay (72 h, fluorescent DNA-intercalating dye)
# Protocol: (§2) For experiments with all other parasites, the effects of compounds of interest on parasite proliferation was measured in 96-well plates containing serial dilutions of the compounds in culture medium, with a fluorescent DNA-intercalating dye used to detect surviving parasites. The assays were initiated with erythrocytes infected with predominantly ring-stage parasites, and the starting parasitaemia and haematocrit were both 1%.
# [4] = test system: Dd2-PfATP4^T418N,P990R parasites; assay: as above
# Protocol: as §2
# [5] = test system: HCR1 parasites (highly cipargamin-resistant clone 1); assay: as above; conditions: Plasmodium falciparum
# Protocol: as §2
# [6] = test system: Dd2 parasites; assay: as above
# Protocol: as §2
# [7] = test system: Dd2-Polδ parasites; assay: as above
# Protocol: as §2
# [8] = test system: HCR2 parasites (highly cipargamin-resistant clone 2); assay: as above; conditions: Plasmodium falciparum
# Protocol: as §2
structure (smiles),measurement,setting,value
N#Cc1cc(NC(=O)[C@H]2c3ccccc3C(=O)N(CC(F)(F)F)[C@@H]2c2cccnc2)ccc1F [(+)-SJ733],IC50,"[1]; MEAN, read-out: IC50 for Na+ dysregulation, MEAN",> 10000 nM
same,IC50,"[1]; single experiments, read-out: IC50 for Na+ dysregulation",> 10000 nM
same,Final [Na+]cyt reached,"[2]; [(+)-SJ733] 9.8 nM, MEAN",24.0
same,Final [Na+]cyt reached,"[2]; [(+)-SJ733] 19.5 nM, MEAN",33.0
same,Final [Na+]cyt reached,"[2]; [(+)-SJ733] 39.1 nM, MEAN",53.8
same,Final [Na+]cyt reached,"[2]; [(+)-SJ733] 78.1 nM, MEAN",78.4
same,Final [Na+]cyt reached,"[2]; [(+)-SJ733] 156.3 nM, MEAN",97.5
same,Final [Na+]cyt reached,"[2]; [(+)-SJ733] 156.3 nM, single experiments",122.9 and 77.5 and 89.5 and 99.9
same,Final [Na+]cyt reached,"[2]; [(+)-SJ733] 312.5 nM, MEAN",102.1
same,Final [Na+]cyt reached,"[2]; [(+)-SJ733] 312.5 nM, single experiments",131.1 and 85.2 and 96.4 and 95.7
same,Final [Na+]cyt reached,"[2]; [(+)-SJ733] 625 nM, MEAN",112.5
same,Final [Na+]cyt reached,"[2]; [(+)-SJ733] 625 nM, single experiments",132.7 and 104.6 and 109.2 and 103.6
same,Final [Na+]cyt reached,"[2]; [(+)-SJ733] 2500 nM, MEAN",112.4
same,Final [Na+]cyt reached,"[2]; [(+)-SJ733] 2500 nM, single experiments",123.5 and 114.1 and 104.4 and 107.6
same,Final [Na+]cyt reached,"[2]; [(+)-SJ733] 5000 nM, MEAN",111.0
same,Final [Na+]cyt reached,"[2]; [(+)-SJ733] 5000 nM, single experiments",138.3 and 95.8 and 115.2 and 94.7
same,Final [Na+]cyt reached,"[2]; [(+)-SJ733] 10000 nM, MEAN",115.2
same,Final [Na+]cyt reached,"[2]; [(+)-SJ733] 10000 nM, single experiments",139.1 and 108.5 and 119.1 and 94.2
same,Final [Na+]cyt reached,"[2]; [(+)-SJ733] 20000 nM, MEAN",108.1
same,Final [Na+]cyt reached,"[2]; [(+)-SJ733] 20000 nM, single experiments",139.5 and 98.0 and 111.1 and 84.0
same,IC50,"[2]; DD2, 1.5 h, pH 7.1, Dd2-Polδ, ~90 min exposure, 37 °C, pH 7.1, mean ± SEM, read-out: IC50 for Na+ dysregulation",55 ± 15 nM
same,IC50,"[2]; DD2, Dd2-Polδ, MEAN, source data of Table 1 (nM there), read-out: IC50 for Na+ dysregulation, MEAN",55 nM
same,difference in potency between the drugs,"[2]; vs cipargamin, [Na+]cyt assays (P. falciparum, T. gondii) and P. falciparum proliferation assays",> 6 fold
same,IC50,"[3]; Dd2-Polδ-PfATP4G358S, single experiments, source data of Fig. 2 (nM in Supplementary Table 1), read-out: IC50 values",11800 nM and 8860 nM and 8730 nM
same,IC50,"[3]; Plasmodium falciparum, DD2, Dd2-Polδ-PfATP4G358S, MEAN, source data of Fig. 2, read-out: IC50 values, MEAN",9070 nM
same,IC50,"[3]; Plasmodium falciparum, DD2, Dd2-Polδ-PfATP4G358S, single experiments, source data of Fig. 2 (nM in Supplementary Table 1), read-out: IC50 values",6890 nM
same,IC50,"[3]; Plasmodium falciparum, DD2, SET-2, read-out: Mean IC50 value ± SEM for growth inhibition, Dd2-Polδ-PfATP4G358S, Supplementary Table 1, Set 2",9070 nM
same,IC50,"[4]; Dd2-PfATP4T418N,P990R, single experiments, source data of Fig. 2 (nM in Supplementary Table 1), read-out: IC50 values",359 nM and 293 nM and 333 nM and 337 nM
same,IC50,"[4]; Plasmodium falciparum, DD2, Dd2-PfATP4T418N,P990R, MEAN, source data of Fig. 2, read-out: IC50 values, MEAN",331 nM
same,IC50,"[4]; Plasmodium falciparum, DD2, Dd2-PfATP4T418N,P990R, single experiments, source data of Fig. 2 (nM in Supplementary Table 1), read-out: IC50 values",334 nM
same,IC50,"[4]; Plasmodium falciparum, DD2, read-out: Mean IC50 value ± SEM for growth inhibition, Dd2-PfATP4T418N,P990R, Supplementary Table 1, Set 1",331 ± 11 nM
same,IC50,"[5]; HCR1, MEAN, source data of Fig. 2, read-out: IC50 values, MEAN",21500 nM
same,IC50,"[5]; read-out: Mean IC50 value ± SEM for growth inhibition, HCR1, Supplementary Table 1, Set 1",21500 nM
same,IC50,"[6]; Plasmodium falciparum, DD2, read-out: IC50 values, Dd2, single experiments, source data of Fig. 2 (nM in Supplementary Table 1)",58.3 nM
same,IC50,"[6]; Plasmodium falciparum, DD2, read-out: IC50 values, MEAN, Dd2, MEAN, source data of Fig. 2",59.6 nM
same,IC50,"[6]; Plasmodium falciparum, DD2, read-out: Mean IC50 value ± SEM for growth inhibition, Dd2, Supplementary Table 1, Set 1",60 ± 2 nM
same,IC50,"[6]; read-out: IC50 values, Dd2, single experiments, source data of Fig. 2 (nM in Supplementary Table 1)",66.6 nM and 57.7 nM and 59 nM and 56.4 nM
same,IC50,"[7]; Dd2-Polδ, single experiments, source data of Fig. 2 (nM in Supplementary Table 1), read-out: IC50 values",30.9 nM and 37.1 nM and 51.3 nM
same,IC50,"[7]; Plasmodium falciparum, DD2, Dd2-Polδ, MEAN, source data of Fig. 2, read-out: IC50 values, MEAN",40.7 nM
same,IC50,"[7]; Plasmodium falciparum, DD2, Dd2-Polδ, single experiments, source data of Fig. 2 (nM in Supplementary Table 1), read-out: IC50 values",43.6 nM
same,IC50,"[8]; HCR2, MEAN, source data of Fig. 2, read-out: IC50 values, MEAN",17600 nM
same,IC50,"[8]; read-out: Mean IC50 value ± SEM for growth inhibition, HCR2, Supplementary Table 1, Set 1",17600 nM

# Source: paper PMC9525273 (Nature Communications, 2022)
